Values joined by “and” are separate entries in the source; they are usually repeats but may differ in a detail not shown here. Equal entries are not always repeated. Bridge positions count the residues as written; N and C are the ends. Square brackets hold non-standard residues; d marks the D form. Peptide text beside a SMILES is read from it. R8 = C=CCCCCCC[C@@](C)(N)C(=O)O; S5 = C=CCCC[C@](C)(N)C(=O)O
System: not listed separately
Experiment: circular dichroism
Settings: PBS; pH 7.4; rt °C; 100 uM

Compared with `CC(=O)N[C@H](C(=O)N[C@@H](Cc1ccccc1)C(=O)N[C@]1(C)CCCCCC/C=C/CCC[C@@](C)(C(=O)N[C@@H](CCC(=O)O)C(=O)N[C@@H](CC(=O)O)C(=O)N[C@@H](CC(C)C)C(N)=O)NC(=O)[C@H](CCC(=O)O)NC(=O)[C@H](Cc2c[nH]cn2)NC(=O)[C@H](CC(N)=O)NC(=O)[C@H](Cc2ccccc2)NC(=O)[C@H](CCCCN)NC(=O)[C@H](CC(=O)O)NC1=O)[C@@H](C)O` (Ac-TF[R8]DKFNHE[S5]EDL-NH2; staple (E) 3-10), `CC[C@H](C)[C@H](NC(C)=O)C(=O)N[C@@H](CCC(=O)O)C(=O)N[C@@H](CCC(=O)O)C(=O)N[C@@H](CCC(N)=O)C(=O)N[C@]1(C)CCCCCC/C=C/CCC[C@@](C)(C(=O)N[C@@H](CC(N)=O)C(=O)N[C@@H](Cc2c[nH]cn2)C(=O)N[C@@H](CCC(=O)O)C(N)=O)NC(=O)[C@H](CCCCN)NC(=O)[C@H](CC(=O)O)NC(=O)[C@H](CC(C)C)NC(=O)[C@H](Cc2ccccc2)NC(=O)[C@H]([C@@H](C)O)NC(=O)[C@H](CCCCN)NC1=O` (Ac-IEEQ[R8]KTFLDK[S5]NHE-NH2; staple (E) 5-12) is lower in helicity: 16.1% for the first, 12.2% for the second.

Compared with Ac-TFLDKFNHEAEDL-NH2, Ac-HEAEDLFYQS-NH2 is lower in helicity: 8.6% for the first, 5.9% for the second.

First: CC(=O)N[C@@H](Cc1c[nH]cn1)C(=O)N[C@@H](CCC(=O)O)C(=O)N[C@@]1(C)CCCC=CCCC[C@@](C)(C(=O)N[C@@H](Cc2ccc(O)cc2)C(=O)N[C@@H](CCC(N)=O)C(=O)N[C@@H](CO)C(N)=O)NC(=O)[C@H](CC(C)C)NC(=O)[C@H](CC(=O)O)NC(=O)[C@H](CCC(=O)O)NC1=O (Ac-HE[S5]EDL[S5]YQS-NH2; staple 3-7)
Second: Ac-IEEQAKTFLDKFNHE-NH2
The helicity of the first is higher: 33.4% for the first, 9.6% for the second.

Molecule `CC(=O)N[C@H](C(=O)N[C@@]1(C)CCCC=CCCC[C@@](C)(C(=O)N[C@@H](CC(N)=O)C(=O)N[C@@H](Cc2c[nH]cn2)C(=O)N[C@@H](CCC(=O)O)C(=O)N[C@@H](C)C(=O)N[C@@H](CCC(=O)O)C(=O)N[C@@H](CC(=O)O)C(=O)N[C@@H](CC(C)C)C(N)=O)NC(=O)[C@H](CCCCN)NC(=O)[C@H](CC(=O)O)NC(=O)[C@H](CC(C)C)NC1=O)[C@@H](C)O` has a helicity of 21%.

System: not given
Experiment: not given
Format: physicochemical
Settings: pH 7.4

First: Ac-TFLDKFNHEAEDL-NH2 [Peptide 13]
Second: Ac-IR8EQAKTFS5LKFNHEAEDLFYQS-NH2 (sidechain bridge or staple) [Peptide 2]
The “% Helicity” value of the first is lower: 8.6% for the first, 35.4% for the second.

Going from “Ac-IEEQAKTFLDKFR8HEAEDLS5YQS-NH2 (sidechain bridge or staple) [Peptide 7]” to “Ac-IEEQAKTFR8DKFNHES5EDLFYQS-NH2 (sidechain bridge or staple) [Peptide 5]”, the “% Helicity” value falls from 54.5% to 31.3%.

Compared with “Ac-IEEQAR8TFLDKFS5HEAEDLFYQS-NH2 (sidechain bridge or staple) [Peptide 4]”, “Ac-IEEQAKTFLDKR8NHEAEDS5FYQS-NH2 (sidechain bridge or staple) [Peptide 6]” is lower in “% Helicity” value: 57.9% for the first, 23.5% for the second.

Compared with “Ac-IEEQR8KTFLDKS5NHE-NH2 (sidechain bridge or staple) [Peptide 12]”, “Ac-TFR8DKFNHES5EDL-NH2 (sidechain bridge or staple) [Peptide 14]” is higher in “% Helicity” value: 12.2% for the first, 16.1% for the second.

Going from Ac-HEAEDLFYQS-NH2 [Peptide 9] to Ac-IEEQAKTFLDKFNHE-NH2 [Peptide 11], the “% Helicity” value rises from 5.9% to 9.6%.

Compared with “Ac-TS5LDKS5NHEAEDL-NH2 (sidechain bridge or staple) [Peptide 15]”, “Ac-IEEQR8KTFLDKS5NHEAEDLFYQS-NH2 (sidechain bridge or staple) [Peptide 3]” is higher in “% Helicity” value: 21.0% for the first, 55.6% for the second.

With “Ac-IEEQAKTFLDKFNHER8EDLFYQS5-NH2 (sidechain bridge or staple) [Peptide 8]” the “% Helicity” value was 72% and 72.2%.

System: SARS‐CoV‐2 spike (Wuhan‐Hu‐1 strain) pseudovirus with HIV core, entry into 293 T ACE2 expressing cells
Experiment: not given
Format: cell-based
Settings: not given

In the case of “IEEQAKR8FLDKFNS5EAEDLFYQS (sidechain bridge or staple) [Stapled negative control]”, the “inhibition of viral entry” value was “None of these compounds including stapled peptide 8 inhibited viral entry”.
For “Ac-IEEQAKTFLDKFNHER8EDLFYQS5-NH2 (sidechain bridge or staple) [Peptide 8]”, the “inhibition of viral entry” value was “None of these compounds including stapled peptide 8 inhibited viral entry”.
With “Ac-FHTSEYDEQNEIEAAQLFKDFLK-NH2 [Scrambled negative control]” the “inhibition of viral entry” value was “None of these compounds including stapled peptide 8 inhibited viral entry”.

From PMC7883042 (Peptide Science (Hoboken, N.j.), 2021)
